In the PolyMetriX glass transition set:
± gives the standard deviation of the reports.

In order of rising glass transition temperature:
1. *CCOC(=O)CCCCCCC(=O)OCCOC(=O)c1ccc(C(=O)O*)cc1 (repeat unit)  -1.00 °C
2. *CCCCCCOC(=O)OCCCOC(=O)OCCCCCCOc1ccc(C(=O)c2ccc(O*)cc2)cc1 (repeat unit)  16.00 °C
3. *CC(C)(C)COC(=O)O* (repeat unit)  25.00 °C
4. *CC(Cc1ccc(-c2ccccc2)cc1)C[Si](*)(C)C (repeat unit)  28.00 °C
5. *Cc1ccccc1CSS* (repeat unit)  39.00 °C
6. *CCOCCOCCOCCOC(=O)c1ccc(-c2ccc(-c3ccc(C(=O)O*)cc3)cc2)cc1 (repeat unit)  40.00 °C
7. *CC(*)OC(=O)c1ccccc1C (repeat unit)  42.50 °C
8. *CC(*)C(=O)c1ccc(CCC)cc1 (repeat unit)  44.00 °C
9. *CCN(CCCCCCOc1ccc(/C=C/c2ccc([N+](=O)[O-])cc2)cc1)CCOC(=O)Nc1ccc(C)c(NC(=O)O*)c1 (repeat unit)  58.50 °C
10. *OC(=O)c1ccc(SCCCCSc2ccc(C(*)=O)cc2)cc1 (repeat unit)  62.00 °C
11. *CCN(*)C(=O)C1(c2ccc(Cl)cc2)CCC1 (repeat unit)  112.00 °C
12. *CC(O)COc1ccc(C(C)(C)c2ccc(OCC(O)COc3ccc(NC(=O)CCCCCC(=O)Nc4ccc(O*)cc4)cc3)cc2)cc1 (repeat unit)  116.00 °C
13. *CCN(CCOC(=O)NCC1(C)CC(NC(=O)O*)CC(C)(C)C1)c1ccc(/N=N/c2ccc([N+](=O)[O-])cc2)cc1 (repeat unit)  137.00 °C
14. *Oc1ccc(OC(=O)c2cc(OCCCCCCCCCCC(F)(F)C(F)(F)C(F)(F)C(F)(F)C(F)(F)C(F)(F)C(F)(F)C(F)(F)C(F)(F)C(F)(F)F)cc(C(*)=O)c2)cc1 (repeat unit)  137.00 °C
15. *CCCC(=O)NNC(=O)c1ccc(C(=O)NNC(=O)CCCOc2ccc(O*)c(C)c2)cc1 (repeat unit)  139.00 °C
16. *c1ccc(Oc2ccc3ccc(Oc4ccc(N5C(=O)CC(=O)N(*)C5=S)cc4)cc3c2)cc1 (repeat unit)  151.50 °C
17. *CC(*)(C)C(=O)Oc1c(C)cccc1C (repeat unit)  167.00 °C
18. *C1C(*)C2CC1C(COCc1ccccc1)C2COCc1ccccc1 (repeat unit)  176.00 °C
19. *C(=O)Nc1ccc(C2(c3ccc(NC(=O)c4ccc5c(c4)C(=O)N(c4ccc(-c6ccc(N7C(=O)c8ccc(*)cc8C7=O)c(OC)c6)cc4OC)C5=O)cc3)c3ccccc3-c3ccccc32)cc1 (repeat unit)  181.00 °C
20. */C(C#N)=C/c1cc(OCCCCCCCCCCCC)c(/C=C(\C#N)c2cc(OCCCCCCCCCCCC)c(*)cc2OC)cc1OC (repeat unit)  181.00 °C
21. *c1ccc(Sc2ccc(Sc3ccc(N4C(=O)c5ccc(Sc6ccc(Sc7ccc(Sc8ccc9c(c8)C(=O)N(*)C9=O)cc7)cc6)cc5C4=O)cc3)s2)cc1 (repeat unit)  185.50 °C
22. *CCCCCCCCc1nc2ccc(-c3ccc4nc(*)sc4c3)cc2s1 (repeat unit)  238.00 °C
23. *C(=O)c1ccc2c(c1)C(=O)N(c1cccc(Cc3cccc(N4C(=O)c5ccc(*)cc5C4=O)c3)c1)C2=O (repeat unit)  249.50 ± 20 °C
24. *Oc1ccc(C2(c3ccc(Oc4ccc(C(=O)c5cccc6cccc(C(=O)c7ccc(*)cc7)c56)cc4)cc3)c3ccccc3-c3ccccc32)cc1 (repeat unit)  269.00 °C
25. *C(=O)Nc1ccc(Oc2ccc(NC(=O)c3ccc4c(c3)C(=O)N(c3ccc(Oc5cccc6c(N7C(=O)c8ccc(*)cc8C7=O)cccc56)cc3)C4=O)cc2)cc1 (repeat unit)  278.00 °C
26. *c1ccc(Oc2ccc(C(=O)c3cccc(C(=O)c4ccc(Oc5ccc(-n6c(=O)c7cc8c(=O)n(*)c(=O)c8cc7c6=O)cc5)cc4)n3)cc2)cc1 (repeat unit)  324.60 °C
